Experimental data as given in patent US6737383B1, “Herbicidal oxadiazolidines” (priority 1999, dated 2004).

Key:
[1] = tested on: tall mallow; experiment: Test D tall mallow; type: in vivo, Malva sylvestris; settings: Postemergence, 0 to 100 scale
[2] = tested on: Green foxtail; experiment: Test D green foxtail; type: in vivo; settings: Rate 250 g/ha; Postemergence; 0 to 100 scale
[3] = tested on: Spanishneedles; experiment: Test D Spanishneedles; type: in vivo, Bidens bipinnata; settings: Postemergence, 0 to 100 scale
[4] = tested on: itchgrass; experiment: Test D itchgrass; type: in vivo, Rottboellia exaltata; settings: Postemergence, 0 to 100 scale
[5] = tested on: Alexandergrass; experiment: Test D Alexandergrass; type: in vivo, Brachiaria plantaginea; settings: Postemergence, 0 to 100 scale
[6] = tested on: common groundsel; experiment: Test D common groundsel; type: in vivo, Senecio vulgaris; settings: Postemergence, 0 to 100 scale
[7] = tested on: Green foxtail; experiment: Test D green foxtail; type: in vivo; settings: Rate 250 g/ha; Postemergence; 0 to 100 scale; remark: listed apart in the source
[8] = tested on: dallisgrass; experiment: Test D dallisgrass; type: in vivo, Paspalum dilatatum; settings: Postemergence, 0 to 100 scale
[9] = tested on: Green foxtail; experiment: Test D green foxtail; type: in vivo; settings: Postemergence, 0 to 100 scale, 0 no injury, 100 complete control
[10] = tested on: goosegrass; experiment: Test D goosegrass; type: in vivo, Eleusine indica; settings: Postemergence, 0 to 100 scale
[11] = tested on: pitted morningglory; experiment: Test D pitted morningglory; type: in vivo, Ipomoea lacunosa; settings: Postemergence, 0 to 100 scale
[12] = tested on: Green foxtail; experiment: Test D green foxtail; type: in vivo; settings: Postemergence, 0 to 100 scale, 0 no injury, 100 complete control; remark: listed apart in the source
[13] = Rate 16 g/ha, 0 no injury, 100 complete control
[14] = Rate 32 g/ha, 0 no injury, 100 complete control
[15] = Rate 64 g/ha, 0 no injury, 100 complete control
[16] = Rate 125 g/ha, 0 no injury, 100 complete control

COCC(C)n1c(=O)on(C(=O)N(c2ccc(F)cc2F)C(C)C)c1=O (stereo not shown) [Compound 352]
0: Plant response rating, Tall Mallow [1, 13] | Plant response rating, Tall Mallow [1, 14] | Plant response rating, Spanishneedles [3, 13] | Plant response rating, Spanishneedles [3, 14] | Spanishneedles plant response rating [3, 15] | Plant response rating, Itchgrass [4, 13] | Plant response rating, Itchgrass [4, 14] | Plant response rating, Itchgrass [4, 15] | Plant response rating, Alexandergrass [5, 13] | Plant response rating, Com. groundsel [6, 14] | Plant response rating, Dallisgrass [8, 13] | Plant response rating, Green foxtail ([9]; Rate 16 g/ha) | Plant response rating, Goosegrass [10, 13] | Plant response rating, P. morninglory [11, 13] | Plant response rating, P. morninglory [11, 14] | Plant response rating, P. morninglory [11, 15] | Plant response rating, P. morninglory [11, 16] | Plant response rating, P. morninglory ([11]; Rate 250 g/ha) | Plant response rating, Green foxtail ([12]; Rate 16 g/ha)
60: Plant response rating, Itchgrass ([4]; Rate 250 g/ha) | Plant response rating, Alexandergrass [5, 14]
100: Plant response rating, Green foxtail [2] | Plant response rating, Alexandergrass [5, 16] | Plant response rating, Alexandergrass ([5]; Rate 250 g/ha) | Plant response rating, Com. groundsel [6, 16] | Plant response rating, Com. groundsel ([6]; Rate 250 g/ha) | Plant response rating, Green foxtail [7] | Plant response rating, Dallisgrass [8, 16] | Plant response rating, Dallisgrass ([8]; Rate 250 g/ha) | Plant response rating, Green foxtail ([9]; Rate 32 g/ha) | Plant response rating, Goosegrass [10, 15] | Plant response rating, Goosegrass [10, 16] | Plant response rating, Goosegrass ([10]; Rate 250 g/ha) | Plant response rating, Green foxtail ([12]; Rate 32 g/ha)
40: Spanishneedles plant response rating [3, 16]
70: Plant response rating, Dallisgrass [8, 14]
30: Tall Mallow plant response rating [1, 15] | Tall Mallow plant response rating [1, 16] | Plant response rating, Spanishneedles ([3]; Rate 250 g/ha)
20: Plant response rating, Tall Mallow ([1]; Rate 250 g/ha) | Plant response rating, Itchgrass [4, 16]
80: Plant response rating, Alexandergrass [5, 15] | Plant response rating, Dallisgrass [8, 15]
90: Plant response rating, Goosegrass [10, 14]
50: Plant response rating, Com. groundsel [6, 15]

CC(C)N(C(=O)n1oc(=O)n(C2(C)CC2)c1=O)c1ccccc1 [Compound 360]
10: Plant response rating, P. morninglory ([11]; Rate 250 g/ha)
20: Plant response rating, Spanishneedles ([3]; Rate 250 g/ha) | Plant response rating, Itchgrass [4, 16] | Plant response rating, Alexandergrass [5, 13] | Plant response rating, Goosegrass [10, 13]
70: Plant response rating, Green foxtail ([9]; Rate 32 g/ha) | Plant response rating, Green foxtail ([12]; Rate 32 g/ha)
100: Plant response rating, Green foxtail [2] | Plant response rating, Alexandergrass [5, 16] | Plant response rating, Alexandergrass ([5]; Rate 250 g/ha) | Plant response rating, Com. groundsel [6, 16] | Plant response rating, Com. groundsel ([6]; Rate 250 g/ha) | Plant response rating, Green foxtail [7] | Plant response rating, Dallisgrass [8, 15] | Plant response rating, Dallisgrass [8, 16] | Plant response rating, Dallisgrass ([8]; Rate 250 g/ha) | Plant response rating, Goosegrass [10, 14] | Plant response rating, Goosegrass [10, 15] | Plant response rating, Goosegrass [10, 16] | Plant response rating, Goosegrass ([10]; Rate 250 g/ha)
30: Plant response rating, Itchgrass ([4]; Rate 250 g/ha)
0: Plant response rating, Tall Mallow [1, 13] | Plant response rating, Tall Mallow [1, 14] | Plant response rating, Spanishneedles [3, 13] | Spanishneedles plant response rating [3, 15] | Spanishneedles plant response rating [3, 16] | Plant response rating, Itchgrass [4, 13] | Plant response rating, Itchgrass [4, 14] | Plant response rating, Itchgrass [4, 15] | Plant response rating, Com. groundsel [6, 15] | Plant response rating, Dallisgrass [8, 13] | Plant response rating, Green foxtail ([9]; Rate 16 g/ha) | Plant response rating, P. morninglory [11, 13] | Plant response rating, P. morninglory [11, 14] | Plant response rating, P. morninglory [11, 15] | Plant response rating, P. morninglory [11, 16] | Plant response rating, Green foxtail ([12]; Rate 16 g/ha)
40: Tall Mallow plant response rating [1, 15] | Plant response rating, Dallisgrass [8, 14]
90: Plant response rating, Tall Mallow ([1]; Rate 250 g/ha)
50: Plant response rating, Alexandergrass [5, 15]
60: Tall Mallow plant response rating [1, 16] | Plant response rating, Alexandergrass [5, 14]
